US7625713B2, “Process for identifying a ligand that binds to the NEP binding site for the SMR1 pentapeptide” (Institut Pasteur, priority 2000, dated 2009)
Where a SMILES comes first, the peptide text is derived from it.

Biological target: T1, NEP (Rattus norvegicus, UniProt P07861)
T1 construct: incubations of membrane and fresh tissue slice preparations from nervous tissues; from tissue; host or cells: dorsal spinal cord of male Wistar rats (fresh slices or 100 000 x g membrane fraction)
T1 sequence (P07861 1-750): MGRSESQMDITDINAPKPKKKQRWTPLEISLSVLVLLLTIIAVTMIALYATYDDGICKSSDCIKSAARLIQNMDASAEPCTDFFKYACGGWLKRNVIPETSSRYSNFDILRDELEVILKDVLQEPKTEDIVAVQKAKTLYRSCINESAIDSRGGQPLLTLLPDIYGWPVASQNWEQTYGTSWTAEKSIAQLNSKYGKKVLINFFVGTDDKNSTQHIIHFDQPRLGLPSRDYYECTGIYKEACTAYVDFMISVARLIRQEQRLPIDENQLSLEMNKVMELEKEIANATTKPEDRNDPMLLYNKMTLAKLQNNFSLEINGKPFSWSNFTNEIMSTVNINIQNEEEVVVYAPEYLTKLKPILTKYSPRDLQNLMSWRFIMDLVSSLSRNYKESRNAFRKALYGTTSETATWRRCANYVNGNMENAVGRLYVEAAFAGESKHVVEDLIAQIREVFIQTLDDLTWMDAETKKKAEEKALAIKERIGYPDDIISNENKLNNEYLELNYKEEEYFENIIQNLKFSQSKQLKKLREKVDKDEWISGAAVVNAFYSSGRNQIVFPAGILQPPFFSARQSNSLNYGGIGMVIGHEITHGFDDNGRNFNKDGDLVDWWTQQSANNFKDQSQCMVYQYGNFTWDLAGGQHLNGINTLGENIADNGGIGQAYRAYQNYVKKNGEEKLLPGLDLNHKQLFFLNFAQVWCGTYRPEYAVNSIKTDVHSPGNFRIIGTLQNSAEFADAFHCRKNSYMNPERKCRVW
Assay: Met-enkephalin hydrolysis by rat spinal cord slices and membrane preparations, RP-HPLC analysis
Format: biochemical
Settings: 10 μM combined with the inhibitors of CPB and DPPIV (10 μM), spinal cord slices, 20 min at 25° C.
Experimental: FIG. 2-B: […] Retention time) recovered after 20 min. incubation at 25° C. with 1 mg fresh tissue slices in a 1 ml final volume of KRBG buffer. The organs are rapidly removed, dissected on ice, freed of nerve fibers and of adipose tissues and then washed in cold oxygenated glucose- and bicarbonate-containing Krebs Ringer (KRBG) solution, whose composition is the following: 120 mM NaCl-5 mM KCl-1.2 mM KH2PO4-27.5 mM NaHCO3-2.6 mM CaCl2-0.67 mM MgSO4-5.9 mM glucose. The slices of tissues are prepared either manually with the aid of a scalpel (1-2 mm thick), or mechanically with the aid of a “Tissue Chopper” (1 mm thick). Slices are then dispersed into reaction tubes where they are subjected to three successive washes in ice-cold oxygenated KRBG. […] The organs dissected out and washed in ice-cold KRBG are homogenized at 4° C. in 10 volumes (vol./wt.) of 50 mM Tris/HCl buffered at pH 7.2, using a Teflon-glass homogenizer (3×5 sec.). […] The metabolism rate of the NEP-sensitive peptides was measured using the both NEP substrates involved in the signaling of the nociceptive response: the neuropeptides Met-enkephalin and Substance P. […] Their identification and relative quantification (peak height) are checked by continuously monitoring the UV absorbance at 254 nm of column outflow. […]

Structure (SMILES): N=C(N)NCCC[C@H](NC(=O)[C@@H]1CCCN1C(=O)[C@H](CC(N)=O)NC(=O)[C@H](Cc1c[nH]cn1)NC(=O)[C@@H](N)CCC(N)=O)C(=O)O [sialorphin, Gln-His-Asn-Pro-Arg] (H-QHNPR-OH; N-terminus and C-terminus assumed)
- inhibition of Met-enkephalinase activity (Met-enkephalin degradation): 80%
